Experimental data as given in US11051515B2, “3-acyl-benzamides and their use as herbicides” (Bayer Aktiengesellschaft, priority 2017, dated 2021).

Legend:
[1] = tested on: DIGSA; experiment: Pre-emergence action against DIGSA; assay type: in vivo, Digitaria sanguinalis; settings: dosage 320 g/ha, scored visually after 3 weeks vs untreated controls
In short: (§1)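 Seeds sown in sandy loam in wood-fiber pots and covered with soil. Greenhouse growth; visual damage scored after 3 weeks versus untreated controls (100% = dead, 0% = like control).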

[2] = tested on: ECHCG; experiment: Post-emergence action against ECHCG; assay type: in vivo, Echinochloa crus-galli; settings: post-emergence, dosage 80 g/ha, visual assessment about 3 weeks after treatment vs untreated controls
In short: (§2)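 Post-emergence foliar spray on greenhouse plants at the one-leaf stage, using wettable-powder or emulsion-concentrate formulations in water (600 to […], plus 0.2% wetting agent). Damage scored by eye roughly 3 weeks later against untreated plants: 0% = like control, 100% = dead.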

[3] = tested on: AMARE; experiment: Pre-emergence action against AMARE; assay type: in vivo, Amaranthus retroflexus; settings: pre-emergence, dosage 320 g/ha, scored visually after 3 weeks vs untreated controls
In short: as §1

[4] = tested on: VERPE; experiment: Pre-emergence action against VERPE; assay type: in vivo, Veronica persica; settings: Dosage 320 g/ha, pre-emergence
In short: as §1

[5] = tested on: AVEFA; experiment: Post-emergence action against AVEFA; assay type: in vivo, Avena fatua; settings: post-emergence, dosage 80 g/ha, visual assessment about 3 weeks after treatment vs untreated controls
In short: as §2

[6] = tested on: ALOMY; experiment: Post-emergence action against ALOMY; assay type: in vivo, Alopecurus myosuroides; settings: Dosage 80 g/ha, post-emergence
In short: as §2

[7] = tested on: MATIN; experiment: Pre-emergence action against MATIN; assay type: in vivo, Matricaria inodora; settings: Dosage 320 g/ha, pre-emergence
In short: as §1

[8] = tested on: ECHCG; experiment: Pre-emergence action against ECHCG; assay type: in vivo, Echinochloa crus-galli; settings: pre-emergence, dosage 320 g/ha, scored visually after 3 weeks vs untreated controls
In short: as §1

[9] = tested on: ABUTH; experiment: Post-emergence action against ABUTH; assay type: in vivo, Abutilon theophrasti; settings: post-emergence, dosage 80 g/ha, visual assessment about 3 weeks after treatment vs untreated controls
In short: as §2

[10] = tested on: STEME; experiment: Post-emergence action against STEME; assay type: in vivo, Stellaria media; settings: post-emergence, dosage 80 g/ha
In short: as §2

[11] = tested on: ALOMY; experiment: Pre-emergence action against ALOMY; assay type: in vivo, Alopecurus myosuroides; settings: dosage 320 g/ha, pre-emergence, scored visually after 3 weeks vs untreated controls, 100% = plants have died, 0% = like control plants
In short: as §1

[12] = tested on: PHBPU; experiment: Pre-emergence action against PHBPU; assay type: in vivo, Pharbitis purpurea; settings: Dosage 320 g/ha, pre-emergence
In short: as §1

[13] = tested on: LOLRI; experiment: Pre-emergence action against LOLRI; assay type: in vivo, Lolium rigidum; settings: dosage 320 g/ha, scored visually after 3 weeks vs untreated controls
In short: as §1

[14] = tested on: SETVI; experiment: Pre-emergence action against SETVI; assay type: in vivo, Setaria viridis; settings: pre-emergence, dosage 320 g/ha, scored visually after 3 weeks vs untreated controls
In short: as §1

[15] = tested on: AMARE; experiment: Post-emergence action against AMARE; assay type: in vivo, Amaranthus retroflexus; settings: post-emergence, dosage 80 g/ha, visual assessment about 3 weeks after treatment vs untreated controls
In short: as §2

[16] = tested on: VIOTR; experiment: Post-emergence action against VIOTR; assay type: in vivo, Viola tricolor; settings: post-emergence, dosage 80 g/ha
In short: as §2

[17] = tested on: AVEFA; experiment: Pre-emergence action against AVEFA; assay type: in vivo, Avena fatua; settings: dosage 320 g/ha, scored visually after 3 weeks vs untreated controls
In short: as §1

[18] = tested on: ABUTH; experiment: Pre-emergence action against ABUTH; assay type: in vivo, Abutilon theophrasti; settings: pre-emergence, dosage 320 g/ha, scored visually after 3 weeks vs untreated controls
In short: as §1

[19] = tested on: VIOTR; experiment: Pre-emergence action against VIOTR; assay type: in vivo, Viola tricolor; settings: Dosage 320 g/ha, pre-emergence
In short: as §1

[20] = tested on: MATIN; experiment: Post-emergence action against MATIN; assay type: in vivo, Matricaria inodora; settings: post-emergence, dosage 80 g/ha, visual assessment about 3 weeks after treatment vs untreated controls
In short: as §2

[21] = tested on: STEME; experiment: Pre-emergence action against STEME; assay type: in vivo, Stellaria media; settings: Dosage 320 g/ha, pre-emergence
In short: as §1

[22] = tested on: VERPE; experiment: Post-emergence action against VERPE; assay type: in vivo, Veronica persica; settings: dosage 80 g/ha
In short: as §2

[23] = tested on: SETVI; experiment: Post-emergence action against SETVI; assay type: in vivo, Setaria viridis; settings: post-emergence, dosage 80 g/ha, visual assessment about 3 weeks after treatment vs untreated controls
In short: as §2

[24] = tested on: PHBPU; experiment: Post-emergence action against PHBPU; assay type: in vivo, Pharbitis purpurea; settings: post-emergence, dosage 80 g/ha
In short: as §2

[25] = tested on: DIGSA; experiment: Post-emergence action against DIGSA; assay type: in vivo, Digitaria sanguinalis; settings: dosage 80 g/ha, visual assessment about 3 weeks after treatment vs untreated controls
In short: as §2

[26] = tested on: POLCO; experiment: Pre-emergence action against POLCO; assay type: in vivo, Polygonum convolvulus; settings: Fallopia convolvulus, 504 h; Dosage 320 g/ha, pre-emergence
In short: as §1

[27] = tested on: HORMU; experiment: Pre-emergence action against HORMU; assay type: in vivo, Hordeum murinum; settings: Dosage 320 g/ha
In short: as §1

Cc1c(C(=O)Nc2nnnn2C)ccc(C(F)(F)F)c1C(=O)CCl [1-22]
80: Post-emergence action against VERPE [22]
90%: Post-emergence action against ECHCG (herbicidal action in percent) [2] | Post-emergence action against AVEFA (herbicidal action in percent) [5] | Post-emergence action against ALOMY [6] | Post-emergence action against ABUTH (herbicidal action in percent) [9] | Pre-emergence action against ALOMY (herbicidal activity in percent) [11] | Pre-emergence action against PHBPU [12] | Post-emergence action against AMARE (herbicidal action in percent) [15] | Post-emergence action against MATIN (herbicidal action in percent) [20] | Post-emergence action against SETVI (herbicidal action in percent) [23]
90: Post-emergence action against STEME [10] | Post-emergence action against VIOTR [16] | Post-emergence action against PHBPU [24]
100%: Pre-emergence action against DIGSA (herbicidal activity) [1] | Pre-emergence action against AMARE (herbicidal activity) [3] | Pre-emergence action against VERPE [4] | Pre-emergence action against MATIN [7] | Pre-emergence action against ECHCG (herbicidal activity) [8] | Pre-emergence action against LOLRI (herbicidal activity) [13] | SETVI (Table B8, pre-emergence herbicidal activity) [14] | Pre-emergence action against AVEFA (herbicidal activity) [17] | Pre-emergence action against ABUTH (herbicidal activity) [18] | Pre-emergence action against VIOTR [19] | Pre-emergence action against STEME [21] | Post-emergence action against DIGSA (herbicidal action in percent) [25]

CC(=O)C(=O)c1c(C(F)(F)F)ccc(C(=O)Nc2nnnn2C)c1Cl [1-146]
100%: Pre-emergence action against DIGSA (herbicidal activity) [1] | pest or weed control at 80 g/ha ([2]; Echinochloa crus-galli, 504 h, read-out: Post-emergence action against ECHCG (herbicidal action in percent)) | pest or weed control at 320 g/ha ([3]; Amaranthus retroflexus, 504 h, read-out: Pre-emergence action against AMARE (herbicidal activity)) | pest or weed control at 320 g/ha ([7]; Tripleurospermum inodorum, 504 h) | pest or weed control at 320 g/ha ([8]; Echinochloa crus-galli, 504 h, read-out: Pre-emergence action against ECHCG (herbicidal activity)) | pest or weed control at 80 g/ha ([9]; Abutilon theophrasti, 504 h, read-out: Post-emergence action against ABUTH (herbicidal action in percent)) | pest or weed control at 80 g/ha ([10]; Stellaria media, 504 h) | pest or weed control at 320 g/ha ([14]; Setaria viridis, 504 h, read-out: SETVI (Table B8, pre-emergence herbicidal activity)) | pest or weed control at 80 g/ha ([15]; Amaranthus retroflexus, 504 h, read-out: Post-emergence action against AMARE (herbicidal action in percent)) | pest or weed control at 320 g/ha ([18]; Abutilon theophrasti, 504 h, read-out: Pre-emergence action against ABUTH (herbicidal activity)) | pest or weed control at 320 g/ha ([19]; Viola tricolor, 504 h) | pest or weed control at 320 g/ha ([21]; Stellaria media, 504 h) | pest or weed control at 80 g/ha ([23]; Setaria viridis, 504 h, read-out: Post-emergence action against SETVI (herbicidal action in percent))
80%: pest or weed control at 320 g/ha [26] | pest or weed control at 320 g/ha ([27]; Hordeum murinum, 504 h) | pest or weed control at 80 g/ha ([24]; Ipomoea purpurea, 504 h) | Post-emergence action against DIGSA (herbicidal action in percent) [25]
90%: pest or weed control at 320 g/ha ([4]; Veronica persica, 504 h) | pest or weed control at 320 g/ha ([11]; Alopecurus myosuroides, 504 h, read-out: Pre-emergence action against ALOMY (herbicidal activity in percent)) | pest or weed control at 320 g/ha ([12]; Ipomoea purpurea, 504 h) | pest or weed control at 80 g/ha ([16]; Viola tricolor, 504 h) | pest or weed control at 320 g/ha ([17]; Avena fatua, 504 h, read-out: Pre-emergence action against AVEFA (herbicidal activity)) | pest or weed control at 80 g/ha ([20]; Tripleurospermum inodorum, 504 h, read-out: Post-emergence action against MATIN (herbicidal action in percent)) | pest or weed control at 80 g/ha ([22]; Veronica persica, 504 h)

CSc1c(C(=O)Nc2nnnn2C)ccc(C(F)(F)F)c1C(=O)C1CCC1 [1-284]
90%: Pre-emergence action against ALOMY (herbicidal activity in percent) [11] | Pre-emergence action against LOLRI (herbicidal activity) [13] | Pre-emergence action against AVEFA (herbicidal activity) [17] | Pre-emergence action against VIOTR [19] | Post-emergence action against DIGSA (herbicidal action in percent) [25]
90: Post-emergence action against VERPE [22] | Post-emergence action against PHBPU [24]
100%: Pre-emergence action against DIGSA (herbicidal activity) [1] | Post-emergence action against ECHCG (herbicidal action in percent) [2] | Pre-emergence action against AMARE (herbicidal activity) [3] | Pre-emergence action against VERPE [4] | Pre-emergence action against MATIN [7] | Pre-emergence action against ECHCG (herbicidal activity) [8] | Post-emergence action against ABUTH (herbicidal action in percent) [9] | SETVI (Table B8, pre-emergence herbicidal activity) [14] | Post-emergence action against AMARE (herbicidal action in percent) [15] | Pre-emergence action against ABUTH (herbicidal activity) [18] | Post-emergence action against MATIN (herbicidal action in percent) [20] | Pre-emergence action against STEME [21]
100: Post-emergence action against STEME [10] | Post-emergence action against VIOTR [16]
80%: Post-emergence action against AVEFA (herbicidal action in percent) [5] | Pre-emergence action against PHBPU [12] | Pre-emergence action against HORMU [27]
